Data on three compounds can be found in ChEMBL document CHEMBL5143725, “Optimization of TEAD P-Site Binding Fragment Hit into In Vivo Active Lead MSC-4106” (J Med Chem, 2022).

SMILES strings stand for the structures. Active and inactive are the calls of the source. The rule behind the calls is not given here.

For series [1], the target named is T1, Transcriptional enhancer factor TEF-3 (Homo sapiens, UniProt Q15561). Nature of the series: Binding affinity to human TEAD4 (217 to 434 residues) expressed in Escherichia coli BL21 Star (DE3) assessed as change in melting temperature incubated for 2 hr by measuring tryptophane fluorescence by Nano Differential scanning fluorometry.
A short description of series [2]: Inhibition of YAP/TAZ-TEAD interaction in human SK-HEP1 cells incubated for 24 hrs by luciferase reporter gene assay. It counts as cell-based.
The target in series [3] is T2, Transcriptional enhancer factor TEF-1 (Homo sapiens, UniProt P28347). The experiment in a line: Inhibition of pSF-CMV-P-FLAG tagged human TEAD1 palmitoylation transfected in HEK293 cells at 10 uM incubated for 6 hrs by Western blot analysis relative to control. The series is classed as cell-based.
For series [4], the target named is T3, Transcriptional enhancer factor TEF-4 (Homo sapiens, UniProt Q15562). Nature of the series: Binding affinity to human TEAD2 (217 to 447 residues) expressed in Escherichia coli BL21 Star (DE3) assessed as change in melting temperature incubated for 2 hrs measuring scattering fluorescence by Nano Differential scanning fluorometry.
For series [5], the target named is T3, Transcriptional enhancer factor TEF-4. Nature of the series: Inhibition of pSF-CMV-P-FLAG tagged human TEAD2 palmitoylation transfected in HEK293 cells at 10 uM incubated for 6 hrs by Western blot analysis relative to control. The series is classed as cell-based.
Series [6] has as its target T4, Transcriptional enhancer factor TEF-5 (Homo sapiens, UniProt Q99594). Nature of the series: Inhibition of pSF-CMV-P-FLAG tagged human TEAD3 palmitoylation transfected in HEK293 cells at 10 uM incubated for 6 hrs by Western blot analysis relative to control. The series is classed as cell-based.
For series [7], the system named is NCI-H226. The experiment in a line: Cytotoxicity against human NCI-H226 cells assessed as cell viability at 10 uM measured for 7 days by celltiter-glo assay. It counts as functional, cell-based. The settings on record: NCI-H226, 168 h.
Series [8] concerns the target T4, Transcriptional enhancer factor TEF-5. Nature of the series: Binding affinity to human TEAD3 (216 to 435 residues) expressed in Escherichia coli BL21 Star (DE3) assessed as change in melting temperature incubated for 2 hrs by measuring scattering fluorescence by Nano Differential scanning fluorometry.
For series [9], the target named is T1, Transcriptional enhancer factor TEF-3. Nature of the series: Inhibition of pSF-CMV-P-FLAG tagged human TEAD4 palmitoylation transfected in HEK293 cells at 10 uM incubated for 6 hrs by Western blot analysis relative to control. The series is classed as cell-based.
Series [10] deals with T2, Transcriptional enhancer factor TEF-1. The experiment in a line: Binding affinity to human TEAD1 (209 to 426 residues) expressed in Escherichia coli BL21 Star (DE3) assessed as change in melting temperature incubated for 2 hrs by measuring scattering fluorescence by Nano Differential scanning fluorometry.
The subject of series [11] is NCI-H226. The experiment in a line: In vivo antitumor activity against human NCI-H226 cells xenografted in mouse model assessed as tumor growth inhibition at 100 mg/kg, po qd measured after 32 days. It counts as functional, organism-based. The settings on record: time 32.0 day.
The nature of series [12]: Inhibition of connective tissue growth factor expression in human NCI-H226 cells incubated for 96 hrs by ELISA method. As to conditions: NCI-H226, 96 h.
The target of series [13] is T3, Transcriptional enhancer factor TEF-4. Nature of the series: Binding affinity to human TEAD2 (217 to 447 residues) expressed in Escherichia coli BL21 Star (DE3) assessed as change in melting temperature incubated for 2 hrs by measuring tryptophane fluorescence by Nano Differential scanning fluorometry.
The target of series [14] is T2, Transcriptional enhancer factor TEF-1. Nature of the series: Binding affinity to human TEAD1 (209 to 426 residues) expressed in Escherichia coli BL21 Star (DE3) assessed as change in melting temperature incubated for 2 hrs by measuring tryptophane fluorescence by Nano Differential scanning fluorometry.
Series [15] is described as follows: Inhibition of connective tissue growth factor expression in human SK-HEP1 cells incubated for 96 hrs by ELISA method. The settings on record: SK-HEP1, 96 h.
For series [16], the target named is T1, Transcriptional enhancer factor TEF-3. Nature of the series: Binding affinity to human TEAD4 (217 to 434 residues) expressed in Escherichia coli BL21 Star (DE3) by surface plasmon resonance assay.
Series [17] concerns the target T3, Transcriptional enhancer factor TEF-4. Nature of the series: Binding affinity to human TEAD2 (217 to 447 residues) expressed in Escherichia coli BL21 Star (DE3) by surface plasmon resonance assay.
The target of series [18] is T4, Transcriptional enhancer factor TEF-5. The experiment in a line: Binding affinity to human TEAD3 (216 to 435 residues) expressed in Escherichia coli BL21 Star (DE3) assessed as change in melting temperature incubated for 2 hrs by measuring tryptophane fluorescence by Nano Differential scanning fluorometry.
Series [19] shares this target. The experiment in a line: Binding affinity to human TEAD3 (216 to 435 residues) expressed in Escherichia coli BL21 Star (DE3) by surface plasmon resonance assay.
Series [20] deals with T2, Transcriptional enhancer factor TEF-1. The experiment in a line: Binding affinity to human TEAD1 (209 to 426 residues) expressed in Escherichia coli BL21 Star (DE3) by surface plasmon resonance assay.
The next series has as its system SW-620. Nature of the series: Cytotoxicity against YAP/TAZ knockout human SW620 cells assessed as cell viability measured for 4 days by celltiter-glo assay. As to conditions: SW-620, 96 h.
Series [21] deals with T2, Transcriptional enhancer factor TEF-1. The settings on record: HEK293, dose 100.0 nM, time 6.0 hrs.
Series [22] is described as follows: Inhibition of cysteine-rich angiogenic inducer 61 expression in human SK-HEP1 cells incubated for 96 hrs by ELISA method. The settings on record: SK-HEP1, 96 h.
Series [23] is described as follows: Inhibition of cysteine-rich angiogenic inducer 61 expression in human NCI-H226 cells incubated for 96 hrs by ELISA method. The settings on record: NCI-H226, 96 h.
Series [24] has as its target T4, Transcriptional enhancer factor TEF-5. Nature of the series: Inhibition of pSF-CMV-P-FLAG tagged human TEAD3 palmitoylation transfected in HEK293 cells at 1 uM incubated for 6 hrs by Western blot analysis relative to control. The series is classed as cell-based.
Series [25] can be described thus: Microsomal stability in mouse hepatocyte measured per 10^6 cells. The settings on record: hepatocytes. The series is classed as ADME, cell-based.
The nature of series [26]: Microsomal stability in human hepatocyte measured per 10^6 cells. The series is classed as ADME, cell-based. As to conditions: hepatocytes.

T3 sequence (Q15562 whole entry, the tested form may be a part): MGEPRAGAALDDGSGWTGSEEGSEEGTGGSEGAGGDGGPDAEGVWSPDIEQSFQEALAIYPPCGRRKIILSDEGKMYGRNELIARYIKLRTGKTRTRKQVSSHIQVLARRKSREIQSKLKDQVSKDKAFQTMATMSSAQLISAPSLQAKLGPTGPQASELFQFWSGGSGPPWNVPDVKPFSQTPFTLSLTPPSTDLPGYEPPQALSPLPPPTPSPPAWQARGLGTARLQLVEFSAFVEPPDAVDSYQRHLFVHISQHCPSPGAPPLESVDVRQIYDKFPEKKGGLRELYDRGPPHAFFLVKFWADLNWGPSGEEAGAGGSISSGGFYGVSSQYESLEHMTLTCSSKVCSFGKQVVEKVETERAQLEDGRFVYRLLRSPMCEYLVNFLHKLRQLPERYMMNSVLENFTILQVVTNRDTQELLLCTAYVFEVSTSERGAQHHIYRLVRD
T4 sequence (Q99594 whole entry): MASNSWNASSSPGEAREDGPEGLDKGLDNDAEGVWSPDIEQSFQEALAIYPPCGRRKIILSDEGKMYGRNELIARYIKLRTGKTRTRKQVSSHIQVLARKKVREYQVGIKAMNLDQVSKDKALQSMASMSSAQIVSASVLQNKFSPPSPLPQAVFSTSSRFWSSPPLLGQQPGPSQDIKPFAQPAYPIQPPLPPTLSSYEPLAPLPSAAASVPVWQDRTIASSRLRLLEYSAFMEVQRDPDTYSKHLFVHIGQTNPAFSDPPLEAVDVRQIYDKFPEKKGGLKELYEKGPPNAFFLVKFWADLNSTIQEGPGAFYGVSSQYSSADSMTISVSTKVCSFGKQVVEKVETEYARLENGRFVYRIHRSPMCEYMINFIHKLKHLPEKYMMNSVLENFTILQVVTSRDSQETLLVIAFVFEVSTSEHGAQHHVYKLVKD
T1 sequence (Q15561 whole entry, the tested form may be a part): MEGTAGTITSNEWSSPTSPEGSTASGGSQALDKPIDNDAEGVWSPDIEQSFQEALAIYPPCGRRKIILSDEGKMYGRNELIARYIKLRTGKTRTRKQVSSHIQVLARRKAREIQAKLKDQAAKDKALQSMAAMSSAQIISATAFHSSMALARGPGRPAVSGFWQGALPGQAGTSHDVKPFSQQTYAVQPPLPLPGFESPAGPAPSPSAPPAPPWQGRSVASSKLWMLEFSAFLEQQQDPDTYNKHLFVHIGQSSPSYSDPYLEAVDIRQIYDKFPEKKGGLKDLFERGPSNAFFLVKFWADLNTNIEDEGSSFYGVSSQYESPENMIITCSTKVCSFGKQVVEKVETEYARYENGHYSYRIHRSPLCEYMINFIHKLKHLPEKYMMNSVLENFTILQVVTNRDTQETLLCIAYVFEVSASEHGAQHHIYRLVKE
T2 sequence (P28347 whole entry, the tested form may be a part): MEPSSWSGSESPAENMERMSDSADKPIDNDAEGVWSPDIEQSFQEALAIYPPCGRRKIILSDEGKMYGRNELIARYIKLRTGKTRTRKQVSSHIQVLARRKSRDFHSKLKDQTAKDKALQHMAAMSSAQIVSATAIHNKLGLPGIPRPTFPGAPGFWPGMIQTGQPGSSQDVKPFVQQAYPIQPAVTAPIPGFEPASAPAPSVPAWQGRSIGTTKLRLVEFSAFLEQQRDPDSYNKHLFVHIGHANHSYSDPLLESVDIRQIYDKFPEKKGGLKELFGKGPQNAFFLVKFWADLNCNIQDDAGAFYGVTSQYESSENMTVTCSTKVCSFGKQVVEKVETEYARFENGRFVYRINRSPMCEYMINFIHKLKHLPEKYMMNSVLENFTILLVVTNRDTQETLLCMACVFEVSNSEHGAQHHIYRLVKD

Turning to `Cc1nccnc1-c1nn2c(=O)cc(-c3ccc(C4CCCCC4)cc3)[nH]c2c1C(=O)N1CC(CF)C1`, the thermal shift (ΔTm) came to 14.9 °C in series [1], 9.5 °C in series [4], 6.9 °C in series [8] and 7.6 °C in series [10]. Further, the IC50 in series [2] stood at 36 nM; in the series with NCI-H226 [7], 82 nM. Further, the inhibition was determined as 84% in series [3], 86% in series [5], 91% in [6] and 88% in series [9].

For the compound `Cn1cc2c3cc(C(=O)O)ccc3n(-c3ccc(C(F)(F)F)cc3)c2n1`, the ΔTm in series [1] is 0.4 °C; in series [13] it was -3.7 °C; in [4], 3.7 °C; in series [14], 13.4 °C; in series [18], 5.1 °C. Also, the IC50 in series [2] was 4 nM; in series [12], 11 nM; in [15], 10 nM; in the series with SW-620, over 30000 nM; in [22], 24 nM; in series [23] it was 13 nM. Moreover, the result in the series with NCI-H226 [11] was Active. Also, the inhibition amounted to 90% in [3]; 24% in [5]; 81% in series [6]; 55.7% in series [21]; 12% in series [9]; 3.8% in series [24]. Besides, the dissociation constant Kd was 5400 nM in series [16], 4600 nM in series [17], 1400 nM in [19] and 120 nM in series [20].

Compound `C#CCn1cc2c3cc(C(=O)O)ccc3n(-c3ccc(C(F)(F)F)cc3)c2n1` came in with an IC50 in series [2] of 4 nM. The Stability in series [25] and in series [26] was over 20 µL/min each time.
